The source of these data is patent publication US20180250321A1, “COMPOSITIONS AND METHODS FOR RESTORING THE IMMUNE SYSTEM” (ORPHEUS THERAPEUTICS, INC., priority 2017, published 2018).

The test system of assay [1] is NKT cells. The note with it: cited from earlier work.
For assay [2], the system named is NKT cells. Put plainly: IFNγ production in mice injected with glycolipid in the presence or absence of GD3 (FIG. 18). In kind it is in vivo, wild-type C57BL/6 mice. As to conditions: C57BL/6 mice. How it is done:
OT-0010 is effective at restoring NKT cell function when wild-type C57BL/6 mice were injected intravenously with either αGalCer (KRN7000) or OT-0010 in the presence or absence of GD3.
In addition, the glycolipids of the present invention are able to fully restore IFN-γ levels, and cause a restoration of NKT cells to a Th-1 response profile (FIG. 18). […] When α-GalCer is administered at a dosage of 3 μgm, only 50% NKT cell function is restored (FIG. 25). While not wishing to be bound by theory, the reason why the glycolipids of the present invention are able to restore NKT cells to a Th-1 response profile is because these glycolipids bind more strongly to CD1d. From a thermodynamic perspective, it is impossible for GD3 to displace these glycolipids from CD1d. […] Again, while not wishing to be bound by theory, it is believed that the glycolipids of the present invention bind more strongly to CD1d due to the incorporation of the -phenyl ring to the distal end of the aliphatic carbon chain attached to the amide group connected to the C1 glycoside linkage of the galactose sugar moiety. The terminal fluorine, —OMe, or —CF3 further enhance the binding of the glycolipids of the present invention to CD1d. The results disclosed in FIG. 18 are unexpected.

For `CCCCCCCCCCCCCCCCCCCCCCCCCC(=O)N[C@@H](CO[C@H]1O[C@H](CO)[C@H](O)[C@H](O)[C@H]1O)[C@H](O)[C@H](O)CCCCCCCCCCCCCC` [α-GalCer], the “restoration of IFN-γ levels” value with NKT cells [1] (FIG. 25, in the presence of GD3) is “does not restore IFN-γ levels”. Moreover, the “NKT cell function restored” value with NKT cells [1] (dosage of 3 μgm, in the presence of GD3, FIG. 25) is on record as 50%. In the assay on NKT cells [2] (glycolipid + GD3, intravenous), the IFNγ production entry is recorded as “Inhibition of IFNγ production”.
In the case of Ganglioside D3 [GD3], the “α-GalCer-induced cytokine production in vivo (IFN-γ, IL-4, IL-12)” value in the assay on NKT cells [1] (1 μg α-GalCer intravenously with or without GD3, serum ELISA) was “inhibits”. Besides, the “IFN-γ production by NKT cells” value in the assay with NKT cells [1] (FIG. 25, effect of GD3) is reported as “dramatic decrease in IFN-γ production”. Moreover, in the assay on NKT cells [2] (substance alone, intravenous), the IFNγ production entry is on record as “Inhibition of IFNγ production”.
